Measured values reported in ChEMBL document CHEMBL6120946, “From Hit to Lead: Discovery of First-In-Class Furanone Glycoside D228 Derived from Chimonanthus salicifolius for the Treatment of Inflammatory Bowel Disease” (J Med Chem, 2024).
Active and inactive are the calls of the source. The calls are words filed in the database; no cut-off is given here.

Legend:
[1] = test system: Mus musculus; assay: Antiinflammatory activity in DSS-induced male C57BL/6 mouse model of inflammatory bowel disease assessed as amelioration of infiltration of inflammatory cells at 50 to 200 microM/Kg by H and E staining based analysis; assay type: functional, organism-based; conditions: dose 50-200 µM/Kg
[2] = test system: Mus musculus; assay: Antiinflammatory activity in DSS-induced male C57BL/6 mouse model assessed as effect on JNK phosphorylation level at 50 to 200 microM/Kg by Western blot analysis; assay type: functional, organism-based; conditions: dose 50-200 µM/Kg
[3] = Toxicity in male Kunming mouse assessed as effect on lung at 100 to 500 mg/kg/day, po measured after 5 weeks by H and E staining based analysis; assay type: organism-based; conditions: in vivo, 840 h, dose 100-500 mg/kg/day
[4] = Toxicity in female Kunming mouse assessed as effect on GLU level in serum at 100 to 500 mg/kg/day, po measured after 5 weeks; assay type: organism-based; conditions: in vivo, 840 h, dose 100-500 mg/kg/day
[5] = Toxicity in female Kunming mouse assessed as effect on AST level in serum at 100 to 500 mg/kg/day, po measured after 5 weeks; assay type: organism-based; conditions: in vivo, 840 h, dose 100-500 mg/kg/day
[6] = Toxicity in male Kunming mouse assessed as effect on BUN level in serum at 100 to 500 mg/kg/day, po measured after 5 weeks; assay type: organism-based; conditions: in vivo, 840 h, dose 100-500 mg/kg/day
[7] = Toxicity in male Kunming mouse assessed as effect on GLU level in serum at 100 to 500 mg/kg/day, po measured after 5 weeks; assay type: organism-based; conditions: in vivo, 840 h, dose 100-500 mg/kg/day
[8] = Toxicity in female Kunming mouse assessed as effect on spleen to body weight ratio at 100 to 500 mg/kg/day, po measured after 5 weeks; assay type: organism-based; conditions: in vivo, 840 h, dose 100-500 mg/kg/day
[9] = test system: Mus musculus; assay: Antiinflammatory activity in DSS-induced male C57BL/6 mouse model of inflammatory bowel disease assessed as decrease in p38 phosphorylation level at 50 to 100 microM/Kg by Western blot analysis; assay type: functional, organism-based; conditions: dose 50-100 µM/Kg
[10] = test system: Mus musculus; assay: Antiinflammatory activity in DSS-induced male C57BL/6 mouse model of inflammatory bowel disease assessed as increase in colon length at 22.5 mg/kg/day, po via gavage measured upto 14 days relative to control; assay type: functional; conditions: time <= 14 day
[11] = test system: Mus musculus; assay: Antiinflammatory activity in DSS-induced male C57BL/6 mouse model assessed as inhibition of IL-17A level in colon at 50 to 100 microM/Kg; assay type: functional, organism-based; conditions: dose 50-100 µM/Kg
[12] = Acute toxicity in male Kunming mouse assessed as effect on heart 5 g/Kg, po measured after 5 weeks; assay type: organism-based; conditions: in vivo, 5000 mg/kg, 840 h
[13] = Acute toxicity in female Kunming mouse assessed as effect on kidney 5 g/Kg, po measured after 5 weeks; assay type: organism-based; conditions: in vivo, 5000 mg/kg, 840 h
[14] = Toxicity in female Kunming mouse assessed as effect on TG level in serum at 100 to 500 mg/kg/day, po measured after 5 weeks; assay type: organism-based; conditions: in vivo, 840 h, dose 100-500 mg/kg/day
[15] = test system: Mus musculus; assay: Antiinflammatory activity in DSS-induced male C57BL/6 mouse model assessed as inhibition of TNF-alpha level in colon at 50 to 100 microM/Kg; assay type: functional, organism-based; conditions: dose 50-100 µM/Kg
[16] = Toxicity in male Kunming mouse assessed as effect on CK level in serum at 100 to 500 mg/kg/day, po measured after 5 weeks; assay type: organism-based; conditions: in vivo, 840 h, dose 100-500 mg/kg/day
[17] = Toxicity in male Kunming mouse assessed as effect on TBIL level in serum at 100 to 500 mg/kg/day, po measured after 5 weeks; assay type: organism-based; conditions: in vivo, 840 h, dose 100-500 mg/kg/day
[18] = test system: Mus musculus; assay: Antiinflammatory activity in DSS-induced male C57BL/6 mouse model assessed as effect on JNK phosphorylation level at 50 to 100 microM/Kg by Western blot analysis; assay type: functional, organism-based; conditions: dose 50-100 µM/Kg
[19] = Toxicity in female Kunming mouse assessed as effect on heart to body weight ratio at 100 to 500 mg/kg/day, po measured after 5 weeks; assay type: organism-based; conditions: in vivo, 840 h, dose 100-500 mg/kg/day
[20] = test system: Mus musculus; assay: Antiinflammatory activity in DSS-induced male C57BL/6 mouse model of inflammatory bowel disease assessed as inhibition of MPO expression at 50 to 100 microM/Kg, po by immunohistochemical analysis; assay type: functional, organism-based; conditions: dose 50-100 µM/Kg
[21] = Toxicity in female Kunming mouse assessed as effect on GGT level in serum at 100 to 500 mg/kg/day, po measured after 5 weeks; assay type: organism-based; conditions: in vivo, 840 h, dose 100-500 mg/kg/day
[22] = Toxicity in male Kunming mouse assessed as effect on Cl inorganic salt level in serum at 100 to 500 mg/kg/day, po measured after 5 weeks; assay type: organism-based; conditions: in vivo, 840 h, dose 100-500 mg/kg/day
[23] = test system: Mus musculus; assay: Antiinflammatory activity in DSS-induced male C57BL/6 mouse model of inflammatory bowel disease assessed as amelioration of infiltration of inflammatory cells at 50 to 100 microM/Kg by H and E staining based analysis; assay type: functional, organism-based; conditions: dose 50-100 µM/Kg
[24] = test system: Mus musculus; assay: Antiinflammatory activity in DSS-induced male C57BL/6 mouse model of inflammatory bowel disease assessed as reduction in diarrhea at 22.5 to 45 mg/kg/day, po via gavage measured upto 14 days; assay type: functional, organism-based; conditions: dose 22.5-45 mg/kg/day, time <= 14.0 day
[25] = Toxicity in male Kunming mouse assessed as effect on heart at 100 to 500 mg/kg/day, po measured after 5 weeks by H and E staining based analysis; assay type: organism-based; conditions: in vivo, 840 h, dose 100-500 mg/kg/day
[26] = Toxicity in male Kunming mouse assessed as change in food intake at 100 to 500 mg/kg/day, po measured after 5 weeks; assay type: organism-based; conditions: in vivo, 840 h, dose 100-500 mg/kg/day
[27] = test system: Mus musculus; assay: Antiinflammatory activity in DSS-induced male C57BL/6 mouse model of inflammatory bowel disease assessed as downregulation of MyD88 expression at 50 to 100 microM/Kg by Western blot analysis; assay type: functional, organism-based; conditions: dose 50-100 µM/Kg
[28] = Toxicity in male Kunming mouse assessed as effect on K inorganic salt level in serum at 100 to 500 mg/kg/day, po measured after 5 weeks; assay type: organism-based; conditions: in vivo, 840 h, dose 100-500 mg/kg/day
[29] = Toxicity in female Kunming mouse assessed as effect on heart at 100 to 500 mg/kg/day, po measured after 5 weeks by H and E staining based analysis; assay type: organism-based; conditions: in vivo, 840 h, dose 100-500 mg/kg/day
[30] = Genotoxicity in erythrocyte (unknown origin) by Erythrocyte micronucleus test; assay type: toxicity, cell-based
[31] = Toxicity in female Kunming mouse assessed as effect on CREA level in serum at 100 to 500 mg/kg/day, po measured after 5 weeks; assay type: organism-based; conditions: in vivo, 840 h, dose 100-500 mg/kg/day
[32] = Toxicity in male Kunming mouse assessed as effect on liver to body weight ratio at 100 to 500 mg/kg/day, po measured after 5 weeks; assay type: organism-based; conditions: in vivo, 840 h, dose 100-500 mg/kg/day

For `CC(C)=C1OC(C)=C(O[C@@H]2O[C@H](CO)[C@@H](O)[C@H](O)[C@H]2O)C1=O`, the Activity [1] was “Active” and the Activity [2] was “inactive”.

In the case of `CC(=O)OC[C@H]1O[C@@H](OC2=C(C)OC(=C(C)C)C2=O)[C@H](OC(C)=O)[C@@H](OC(C)=O)[C@@H]1OC(C)=O`, the Activity [3] is reported as “Non-toxic”, the Activity [4] is reported as “Non-toxic” and the Activity [5] is reported as “Non-toxic”. The Activity [6] was “Non-toxic”, the Activity [7] was “Non-toxic” and the Activity [8] was “Non-toxic”. For the same compound, the Activity [9] was “Active”, the Activity [10] was 45.3% and the Activity [11] was “Active”. The Activity [12] was “Non-toxic”, the Activity [13] was “Non-toxic” and the Activity [14] was “Non-toxic”. The Activity [15] was “Active”, the Activity [16] was “Non-toxic” and the Activity [17] was “Non-toxic”. The Activity [18] was “inactive”, the Activity [19] was “Non-toxic” and the Activity [20] was “Active”. The Activity [21] was “Non-toxic”, the Activity [22] was “Non-toxic” and the Activity [23] was “Active”. The Activity [24] was “Active”, the Activity [25] was “Non-toxic” and the Activity [26] was “Non-toxic”. For the same compound, the Activity [27] was “Active”, the Activity [28] was “Non-toxic” and the Activity [29] was “Non-toxic”. The Activity [30] was “Non-toxic”, the Activity [31] was “Non-toxic” and the Activity [32] was “Non-toxic”.
